Measured values reported in patent US6749840B2, “Inhibition of pigmentation by inhibition of fatty acid synthase” (New York University, priority 2001, dated 2004).

Tested on: Melan-a melanocytes
Test: Assay for melanin production in melan-a melanocytes (absorbance of melanin at 490 nm per protein)
Format: cell-based, mice
Conditions: at 3 μM; average; results of FIG. 1
Experimental: Melan-a melanocytes (α/α, P/P), an immortalized melanocyte line derived from C57BLI6J mice wild type at the p locus (Bennett et al. (1987), Int. J. Cancer 39:414-418), were incubated in Dulbecco's modification of Eagle's medium (DMEM: 10% fetal calf serum, 2 mM L-glutamine, 1 mM sodium pyruvate, 1% MEM non-essential amino acids 100×, […]). Immediately before using the medium, tetradecanoyl phorbol acetate (TPA) was added at 200 nM. Cells were seeded in T-25 flasks with 4×10^4 cells/ml×4.5 ml/flask (10-20% confluent) and were grown at 37° C. with 5% CO2. Twenty-four hours later, a compound to be tested (diluted in 0.5 ml media) was added to the media. Forty-eight hours after the addition of drug, both the media and drug were changed. Cells were harvested after an additional 48 or 72 hours (100% confluent). In harvesting the cells, the reagents and cells were kept at 4° C. Briefly, the media was removed from the cells, and one milliliter of media was reserved if needed for the tyrosinase assay. The cells were then rinsed with approximately 500 μl cold 1×phosphate buffered saline (PBS) until the PBS rinse was clear. […] 2 N NaOH in 20% DMSO was used as a blank, and the samples were read at a wavelength of 490 nm. The data were reported as absorbance of melanin per protein calculated for the total sample. […]

## C/C=C/C/C=C/CCC(=O)[C@H]1O[C@H]1C(N)=O [cerulenin, [2R,3S]-2,3-epoxy-4-oxo-7,10-trans, trans-dodecanoic acid amide]
  decrease of pigmentation in melan-a melanocytes: 50%
